Earlier results on 71 substances are cited in PMC12664280, “Integrative transcriptomics and peptidomics approach reveals unexpectedly diverse endogenous secretory peptides in Odorrana grahami frog skin” (BMC Biology, 2025).

Read-outs that look alike come from different tables or passages of the source. Bridges are numbered along the chain shown (N, C = ends). Where no end group is shown, it is not given here.

For data set [1] the following is noted: annotation in words, cited from earlier work. From the text:
Supplement 12915_2025_2463_MOESM1_ESM.xlsx, sheet "Table S8" | column: Functional effect

For data set [2] the following is noted: previously reported ESPs in Odorrana grahami, Table S1, cited from earlier work. From the text:
(§1) Supplement 12915_2025_2463_MOESM1_ESM.xlsx, sheet "Table S1" | column: Previously reported ESPs in Odorrana grahami

The test system of a further data set is NO release. The following applies: previously reported ESPs in Odorrana grahami, Table S1; cited from earlier work.
Excerpt: as §1

In a further data set the test system is trypsin. The following applies: previously reported ESPs in Odorrana grahami, Table S1; cited from earlier work.
Excerpt: as §1

A further data set has as its system skin wound. The following applies: previously reported ESPs in Odorrana grahami, Table S1; cited from earlier work. From the text: Supplement 12915_2025_2463_MOESM1_ESM.xlsx, sheet "Table S1" | column: Previously reported ESPs in Odorrana grahami || The cathelicidin family: In this study, we report two new ESPs, OG-CATH1 and OG-CATH2, with OG-CATH1 corresponding to two precursor proteins. These peptides are similar to OL-CATH1 and OL-CATH2 from the skin of O. livida, and Cathelicidin-RC1 from frog L. catesbeianus (Fig. S12). However, they show low similarity (20.3%, data not shown) to Cathelicidin-OA1 from the skin of O. andersonii.

In the next data set the test system is HaCat cells. Also on record: method as in PMID 18455266. The following applies: mechanically injured HaCat cells; enhancing the expression of CXCL8, TGFβ, COX-2, VEGF and TLR2; ref [94]; cited from earlier work.
Where [3] appears, read: no reference given, so it comes from the DADP database (table note), ref DADP database.

“GLFSKFAGKGIKDLIFKGVKHIGKEVGMDVIRTGIDVAGCKIKGEC [Esculentin-1-RA8]”: the Functional effect entry in data set [1] (setting [3]) was “antimicrobial”.
As for “GILDTFKNMALNAAKSAGVSVLNALSCKLSKTC [Brevinin-2-RA9]”, the Functional effect entry in data set [1] (setting [3]) is “antimicrobial”.
“VIVFVASVAAEMMQHVYCAASKKC [Odorranain-P-RA1]”: in data set [1] (setting [3]), the Functional effect result was “antimicrobial”.
Regarding ENMFNIKSSVESDSFWG [Andersonin-N1], in data set [1] (ref [4]), the Functional effect result was “Insulin-Releasing, immunomodulating”.
In the case of “GLFSKFVGKGIKNFLIKGVKHIGKEVGMDVIRVGIDVAGCKIKGVC [Esculentin-1-OA1]”, the Functional effect result in data set [1] (setting [3]) was “antimicrobial”.
As for “GLLDGILNANFNAAKSAGTSVLNALSCKLSKTC [Brevinin-2-OA5]”, in data set [1] (setting [3]), the Functional effect entry is given as “antimicrobial”.
On to AALRGCWTKSIPPKPCSGKR [Odorranain-B-RA1], for which the Functional effect result in data set [1] (setting [3]) was “antimicrobial”.
Consider FMPILSCSRFKRC [Odorranain-G-RA2], for which, in data set [1] (setting [3]), the Functional effect result is “antimicrobial”.
Turning to “VIPFVASVAAEMMQHVYCAASKKC [Odorranain-P-RA2]”, the Functional effect result in data set [1] (setting [3]) was “antimicrobial”.
For TSRCIFYRRKKCS [Andersonin-G], the Functional effect result in data set [1] (ref [4]) is on record as “antimicrobial,Insulin-Releasing”.
Consider “GLLDTFKNLALNAAESAGVSVLNSLSCKLSKTC [Brevinin-2-RA5]”, for which, in data set [1] (setting [3]), the Functional effect result is listed as “antimicrobial”.
Regarding QSTYRAPQWAVGHLM [odorranain-BLP-2], in data set [2], the “Functional effect: myotropic activities” value was “myotropic activities”.
As to “GLFGKILGVGKKVLCGLSGMC (disulfide 15-21 (inferred)) [nigrocin-2GRb, FSAP family mature peptide identified via LC-MS/MS in O. grahami skin secretion]”, the “Functional effect: inhibits NO release” value in the data set with NO release is on record as “inhibits NO release”.
Regarding “GVLATVKNLLIGTGDGAAQSVLKTLSCKLSNDC [Brevinin-2-OA6]”, the Functional effect entry in data set [1] (setting [3]) is “antimicrobial”.
With GLLSGVLGVGKKIVCGLSGLC [Nigrosin-RA3], in data set [1] (setting [3]), the Functional effect result is listed as “antimicrobial”.
Regarding “GLFSKFAGKGIKNFLIKGVKHIGKEVGMDVIRTGIDVAGCKIKGEC [Esculentin-1-RA5]”, in data set [1] (setting [3]), the Functional effect entry is on record as “antimicrobial”.
In the case of RPPGFTPFR [Thr6-bradykinin], the “Functional effect: myotropic activities” value in data set [2] is recorded as “myotropic activities”.
As to “GLLRASSVWGRKYYVDLAGCAKA [Odorranain-W-RA1]”, the Functional effect result in data set [1] (setting [3]) was “antimicrobial”.
Consider QMFHLWYLRHMKNKKPMA [Andersonin-X], for which, in data set [1] (ref [4]), the Functional effect result was “Insulin-Releasing, immunomodulating”.
For DYTIRTRLHQESSRKVL [odorranaopin], in data set [2] (discovered in brain only), the “Functional effect: opioid peptide” value was “opioid peptide discovered in brain ONLY”.
For the substance AVNIPFKVHFRCKAAFC [Ranatuerin-2R-RA2], the Functional effect entry in data set [1] (setting [3]) was “antimicrobial”.
As to “GLFTLIKGAAKLIGKTTAKEAGKTGKLEMACKITNQC [Esculentin-2-OA2]”, in data set [1] (setting [3]), the Functional effect entry was “antimicrobial”.
Take GLFSKFAGKGIVNFLIEGVE [Andersonin-X1]: the Functional effect entry in data set [1] (setting [3]) is reported as “antimicrobial”.
Regarding “GFMDTAKNVAKNEAGNLLDNLKCKITKAC [Odorranain-F-OA3]”, in data set [1] (setting [3]), the Functional effect result is given as “antimicrobial”.
On to “GLFSKFSGKGIKNFLIKGVKHIGKEVGMDVIRTGIDVAGCKIKGEC [Esculentin-1-OA2]”, for which the Functional effect entry in data set [1] (setting [3]) is recorded as “antimicrobial”.
Regarding QREYRTPHWAIGHFM [odorranain-BLP-3], the “Functional effect: myotropic activities” value in data set [2] is “myotropic activities”.
As to RPPGFSPFR [bradykinin], the “Functional effect: myotropic activities” value in data set [2] is reported as “myotropic activities”.
As for QRECRAPHWAIGHFM [odorranain-BLP-1], the “Functional effect: myotropic activities” value in data set [2] is recorded as “myotropic activities”.
Turning to FLPPSPWKETFRTS [Odorranain-S-RA], the Functional effect result in data set [1] (setting [3]) is “antimicrobial”.
Regarding “GLLDTFKNLALNAAKSAGVSVLNSLSCKLSKTC [Brevinin-2-RA11]”, in data set [1] (setting [3]), the Functional effect result is recorded as “antimicrobial”.
Turning to GIFGKILGVGKKTLCELSGMC [Nigrocin-1-OA2], the Functional effect result in data set [1] (setting [3]) is given as “antimicrobial”.
Consider ATNIPFKVHFRCKAAFC [Ranatuerin-2R-RA1], for which the Functional effect entry in data set [1] (setting [3]) is “antimicrobial”.
Take RPPGLTPFR [Leu5Thr6-bradykinin]: the “Functional effect: myotropic activities” value in data set [2] is on record as “myotropic activities”.
Take QNTYRAPQWAVGHLM [odorranain-BLP-5]: the “Functional effect: myotropic activities” value in data set [2] is on record as “myotropic activities”.
With “GLFSKFAGKGIKNFLNKGVKHIGKE [Esculentin-1-OA6]”, the Functional effect entry in data set [1] (setting [3]) was “antimicrobial”.
In the case of “GLFTLIKGAAKLIGKTVAKEAGKTGLELMACKITNQC [Esculentin-2-OA3]”, the Functional effect entry in data set [1] (setting [3]) was “antimicrobial”.
For “GLFTKFAGKGIKDLIFKGVKHIGKEVGMDVIRTGIDVAGCKIKGEC [Esculentin-1-RA4]”, the Functional effect result in data set [1] (setting [3]) is reported as “antimicrobial”.
With QREYRAPHWAIGHFM [odorranain-BLP-4], the “Functional effect: myotropic activities” value in data set [2] is recorded as “myotropic activities”.
For the substance “GLLDTFKNMALNAAKSAGVSVLNALSCKLSKTC [Brevinin-2-OA2]”, the Functional effect result in data set [1] (setting [3]) is reported as “antimicrobial”.
On to “GIFTLIKGAAKLIGKTVAKEAGKTGLELMACKITNQC [Esculentin-2-RA2]”, for which the Functional effect result in data set [1] (setting [3]) is recorded as “antimicrobial”.
With VVKCSYRLGSPDSQCN [Odorranain-A-RA7], the Functional effect result in data set [1] (setting [3]) is given as “antimicrobial”.
Turning to DDTEDLANKFIGLM [tachykinin_OG1], in data set [2], the “Functional effect: myotropic activities” value is on record as “myotropic activities”.
Take GCSRWIIGIHGQICRD [Odorranain-U-RA]: the Functional effect result in data set [1] (setting [3]) was “antimicrobial”.
Turning to FLPKLFAKITKKNMAHIR [Andersonin-Y1], the Functional effect result in data set [1] (setting [3]) is given as “antimicrobial”.
In the case of VVKFSYRKGSPAPQKN [Odorranain-A-OA12], the Functional effect result in data set [1] (ref [4]) is on record as “immunomodulating”.
DANVENGEDAEDLTDKFIGLMG [Andersonin-6]: the Functional effect result in data set [1] (setting [3]) is on record as “immunomodulating”.
On to “GFMDTAKNVAKNMAGNLLDNLKCKITKAC [Odorranain-F-OA1]”, for which the Functional effect result in data set [1] (setting [3]) was “antimicrobial”.
Consider “AVNIPFKVHFRCKAAFC (disulfide 12-17 (inferred)) [OGTI, FSAP family mature peptide identified via LC-MS/MS in O. grahami skin secretion]”, for which the “Functional effect: trypsin inhibitor” value in the data set with trypsin is “trypsin inhibitor”.
Take GIFLKVLGVGKKVLCGVSGLC [Nigrocin-1-OA3]: in data set [1] (setting [3]), the Functional effect entry is given as “antimicrobial”.
For FIFPKKNIINSLFGR [Andersonin-I1], in data set [1] (ref [4]), the Functional effect entry is “antimicrobial, Insulin-Releasing, immunomodulating”.
Turning to “GLFSKFAGKGIKNLIFKGVKHIGKEVGMDVIRTGIDVAGCKIKGEC [Esculentin-1-RA7]”, in data set [1] (setting [3]), the Functional effect result is listed as “antimicrobial”.
As to “VAIYGRDDRSDVCRQVQHNWLVCDTY [Andersonin-M3]”, the Functional effect entry in data set [1] (ref [4]) is listed as “immunomodulating”.
As to APFRMGICTTN [odorregulin-E1], the “Functional effect: wound-healing” value in the data set with skin wound is “wound-healing”.
Take “GLLDTFKNMAINAAHGAGVSVLNALSCKLKKTC [Brevinin-2-OA3]”: the Functional effect entry in data set [1] (setting [3]) is “antimicrobial”.
As to “GFMATAKNVAKNMDVTLLDNLKCKITKAC [Odorranain-F-OA4]”, the Functional effect entry in data set [1] (setting [3]) is on record as “antimicrobial”.
As for GLFTLIKGAYKLDAPTVACN [Odorranain-J-OA1], the Functional effect entry in data set [1] (setting [3]) is “antimicrobial”.
Consider “FLPAVIRVAANVLPTAFCAISKKC [Brevinin-1-RAA10]”, for which, in data set [1] (setting [3]), the Functional effect result is “antimicrobial”.
In the case of DDASDRAKKFYGLM [ranamargarin], in data set [2], the “Functional effect: myotropic activities” value is given as “myotropic activities”.
As to GLFTLIKGAYKNDAPTVACN [Odorranain-J-OA2], the Functional effect entry in data set [1] (setting [3]) is “antimicrobial”.
As to YASPKCFRYPNGVLACT [odorranalectin], the “Functional effect: lectin” value in data set [2] was “lectin”.
Consider GLLSGINAEWPC [OA-GL12], for which, in data set [1] (ref [4]), the Functional effect entry was “wound-healing”.
On to “GVLGTVKDLLIGAGKSAAQSTLKTLSCKISNDC [Brevinin-2-OA7]”, for which, in data set [1] (setting [3]), the Functional effect result is on record as “antimicrobial”.
In the case of “GVLATVKNLLNGTGDGAAQSVLKTLSCKLSNDC [Brevinin-2-OA8]”, in data set [1] (setting [3]), the Functional effect result was “antimicrobial”.
Turning to “GLGGAKKNFIIAANKTAPQSVKKTFSCKLYNG [odorranain-E1]”, in the data set with NO release, the “Functional effect: inhibits NO release” value is reported as “inhibits NO release”.
For the substance “ATAWDFGPHGLLPIRPIRIRPLCG [odorranain-M1]”, in the data set on skin wound, the “Functional effect: wound-healing” value is “wound-healing”.
For FLPKLFAGIISKNF [Andersonin-Y2], the Functional effect entry in data set [1] (setting [3]) was “antimicrobial”.
As to DCTRWIIGINGRICRD [Nigroain-E-RA], the Functional effect entry in data set [1] (setting [3]) was “antimicrobial”.
Regarding AALKGCWTKSIPPKPCFGKR [odorranain-B1], the “Functional effect: trypsin inhibitor” value in the data set on trypsin is listed as “trypsin inhibitor”.
As for GLLSGILGAGKHIVCGLSGLC [Nigrosin-RA2], the Functional effect result in data set [1] (setting [3]) is recorded as “antimicrobial”.
For the substance bombesin, in the data set with HaCat cells, the “In vitro wound healing potential” value is on record as “in vitro wound healing potential”.
Turning to “GFMDTAKNVAKNMAVTLLDNLKCKITKAC [Odorranain-F-RA1]”, in data set [1] (setting [3]), the Functional effect entry was “antimicrobial”.
